Test system: DIO-NASH mice
Test: Fibrosis stage, Sirius red histopathological scoring of pre- and post-biopsies
Format: in vivo, male C57BL/6JRj mice
Conditions: post- vs pre-study biopsy, trend, p=0.07
Experimental: Three weeks prior to study start, a pre-biopsy was performed to confirm NASH and for study inclusion of NASH-affected mice only. Briefly, mice were anesthetized with isoflurane (2-3%) in 100% oxygen. A small abdominal incision was made in the midline and the left lateral lobe of the liver exposed. A cone shaped wedge of liver tissue (approximately 50 mg) was excised from the distal portion of the lobe and fixated in 10% neutral buffered formalin (4% formaldehyde) for histopathological analyses. The cut surface of the liver was instantly electro-coagulated using bipolar coagulation (ERBE VIO 100 electrosurgical unit). The liver was returned to the abdominal cavity, the abdominal wall sutured, and the skin closed with staplers. For post-operative recovery, mice received carprofen (5 mg/ml-0.01 ml/10 g) administered subcutaneously on the day of operation and on post-operation day 1 and 2. For Sirius red staining, slides were incubated in Weigert's iron hematoxylin, washed in tap water, stained in Picro-Sirius red and washed twice in acidified water. […] For scoring of NAFLD Activity Score (NAS) and fibrosis stage, HE and Sirius red stained liver sections, respectively, were scored by a histopathology specialist as outlined in Table 10 using the clinical criteria outlined by Kleiner et al. (2005). […] Fibrosis stage is evaluated separately from NAS.

For `O=S(=O)(Nc1cc(Cl)c(Oc2cnc3ccccc3c2)c(Cl)c1)c1ccc(Cl)cc1Cl` [CHS-131], the “Fibrosis stage: mice with improvement” value was 5/13.

— patent US20220143003A1, “COMPOSITIONS AND METHODS TO TREAT NON-ALCOHOLIC FATTY LIVER DISEASES (NAFLD)” (Coherus Biosciences, Inc., priority 2018, published 2022)
